Measured values: publication PMC4389225, “Triaminopyrimidine is a fast-killing and long-acting antimalarial clinical candidate” (Nature Communications, 2015)
pEC50, pIC50: −log10 of the molar value. Like-named read-outs stand apart in the source and are kept apart here.

Assays:
[1] = Rat blood PK, IV and oral; assay type: in vivo; conditions: for Vd / half-life / clearance / MRT / bioavailability / AUC(0-inf) / AUC(0-t) / Cmax: rat; for bioavailability / AUC(0-inf) / AUC(0-t) / Cmax: 10 mg/kg
Protocol: Blood samples were collected at 0.083, 0.25, 0.5, 1, 2, 4, 8, 23, 32, 48, 55 and 72 hours after an IV dose of 2 mg/kg or an oral dose of 10 mg/kg. Oral administration was done using oral gavage at a maximum dose volume of 10 mL/kg. Solution formulation containing 10% NMP, 20% DMA in dextrose / normal saline was used for IV administration and a suspension in 0.5% w/v HPMC with 0.1% v/v Tween 80 was used for oral administration. 25 µl of blood samples were mixed with 100 µL of Milli-Q water and vortexed for 5 minutes in the plate shaker at a speed of 900 rpm to ensure complete hemolysis. Proteins were precipitated by adding 125 µL of cold acetonotrile containing internal standard. After extraction on a plate shaker for 10 minutes at 900 rpm, the plate was centrifuged at 4000 rpm for 20 minutes. The supernatant (180 µL) was transferred to another plate and 2.5 µL of Zinc sulphate (200 mM) was added to separate the heme fraction. This mixture was centrifuged and 10 µL of the supernatant was analyzed by LC-MS/MS. […]

Dd2 PI4K Cpd 1 = assay: [3H]-hypoxanthine incorporation assay, Dd2 PI4K Cpd 1 resistant; assay type: cell-based; conditions: Plasmodium falciparum
Protocol: Supplementary Table 3: Compound 9 and 12 retain their activity against Pf strains harbouring mutations to novel antimalarial agents in clinical development. Compound 9 and 12 were tested for their antiplasmodial activity against a panel of Pf strains known to harbour mutations conferring resistance to novel agents under clinical development. Parasite growth inhibition is measured using the [3H]-hypoxanthine incorporation assay. IC50s are established for each strain (n ≥2) and compared to the IC50 of Dd2 (standard pan-resistant […]

Pf3D7^0087/N9 = assay: animal or person; assay type: in vivo, Plasmodium falciparum
Text: All animal studies were ethically reviewed and carried out in accordance with European Directive 86/609/EEC and the GSK Policy on the Care, Welfare and Treatment of Animals. During this experiment, female mice were used from the batch NSGJ 01/1 (The Jackson Laboratory, USA). The therapeutic efficacy of compound 12 against Pf3D7^0087/N9 was studied using a ‘4-day test’ reported earlier. Briefly, NODscidIL2Rγ^null mice engrafted with human erythrocytes were infected with 20 × 10^6 Pf-infected erythrocytes. Infections were performed by i.v. inoculation. All mice were randomly assigned to their corresponding treatment. The treatment started at day 3 and finished at day 6 after infection. The compound was administered orally as a suspension in 0.5% w/v hydroxypropyl methylcellulose (HPMC) with 0.1% v/v Tween 80, using an oral gavage at a maximum dose volume of 20 ml kg^−1. Vehicle alone was administered in untreated mice. In all cases, parasitemia was assessed in samples from peripheral blood obtained at days 3–7 after infection. A qualitative analysis of the effect of treatment on Pf3D7^0087/N9 was assessed by microscopy and flow cytometry. Fresh samples of peripheral blood from Pf-infected mice were stained with TER-119-Phycoerythrine (marker of murine erythrocytes) and SYTO-16 (nucleic acid dye) and then analysed by flow cytometry (FACS Calibur, BD). Microscopy analysis was performed with Giemsa-stained blood smears from samples taken at days 5 and 7 (48 and 96 h after starting treatment, respectively).
PK-PD model for the metabolite (compound 9) alone. Pharmacokinetic data from the Pf/SCID model was linked to efficacy using the following equation5.
Where P [log (total no. of parasites / mouse)], Kgro (growth rate constant), Pmax (log (maximum no. of parasites / mouse)), Kkill (maximum kill rate constant), H (Hill slope), EC50 (concentration required for achieving half maximal kill rate) and Ce (concentration of the drug in the effect compartment). Percent parasitemia values were converted into total number of parasites in mouse blood assuming […] (9.23 log10) RBCs per mouse. The lower limit of quantitation for % parasitemia was 0.01% or 5.23 log10. Effect compartment was used for modelling the delay observed in efficacy at a lower dose. […]

[2] = Wistar, whole blood, po, Oral 10 mg kg-1, Mean
[3] = Wistar, whole blood, po, Oral 10 mg kg-1, Rat 1
[4] = Wistar, whole blood, po, Oral 10 mg kg-1, Rat 2
[5] = Wistar, whole blood, po, Oral 10 mg kg-1, Rat 3

Work on Cc1nc(Nc2ncc(N3CCN(C)[C@H](C)C3)c(Nc3cc(C)n(C)n3)n2)cc(C2CC2)c1F [compound 12, (R)-N2-(4-cyclopropyl-5-fluoro-6-methylpyridin-2-yl)-N4-(1,5-dimethyl-1H-pyrazol-3-yl)-5-(3,4-dimethylpiperazin-1-yl)pyrimidine-2,4-diamine] yielded a Vd ([1]; Wistar (rat), Beagle (dog), whole blood (rat), plasma (dog), intravenous, 2 mg/kg, rat and dog, read-out: volume of distribution (Vss)) of 10 to 20 L/kg, a half-life ([1]; Wistar (rat), Beagle (dog), whole blood (rat), plasma (dog), iv, 2 mg/kg, intravenous PK, rat and dog, read-out: half-life) of 11 to 13 h and a half-life ([1]; Wistar (rat), Beagle (dog), whole blood (rat), plasma (dog), po, oral PK study, rat and dog, read-out: half-life) of 14 to 16 h. For the same molecule, the clearance ([1]; Wistar, blood, iv, 2 mg/kg, Rat, read-out: Observed blood CL) was 5 to 13 mL/min/kg, the MRT ([1]; Wistar, whole blood, iv, 2 mg/kg, IV 2 mg kg-1, Mean) was 15.7 h and the clearance ([1]; Wistar, whole blood, iv, 2 mg/kg, IV 2 mg kg-1, Mean, read-out: CL) was 9.2 mL/min/kg. It also gave a Vd ([1]; Wistar, whole blood, iv, 2 mg/kg, IV 2 mg kg-1, Mean, read-out: Vss) of 7.7 L/kg, a half-life ([1]; Wistar, whole blood, iv, 2 mg/kg, IV 2 mg kg-1, Mean, read-out: t½ (converted)) of 15.2 h and an MRT ([1]; Wistar, whole blood, iv, 2 mg/kg, IV 2 mg kg-1, Rat 1) of 11.8 h. It also gave a clearance ([1]; Wistar, whole blood, iv, 2 mg/kg, IV 2 mg kg-1, Rat 1, read-out: CL) of 13.1 mL/min/kg, a Vd ([1]; Wistar, whole blood, iv, 2 mg/kg, IV 2 mg kg-1, Rat 1, read-out: Vss) of 9.3 L/kg and a half-life ([1]; Wistar, whole blood, iv, 2 mg/kg, IV 2 mg kg-1, Rat 1, read-out: t½ (converted)) of 13.5 h. For the same molecule, the MRT ([1]; Wistar, whole blood, iv, 2 mg/kg, IV 2 mg kg-1, Rat 2) was 22.6 h, the clearance ([1]; Wistar, whole blood, iv, 2 mg/kg, IV 2 mg kg-1, Rat 2, read-out: CL) was 4.8 mL/min/kg and the Vd ([1]; Wistar, whole blood, iv, 2 mg/kg, IV 2 mg kg-1, Rat 2, read-out: Vss) was 6.6 L/kg. The half-life ([1]; Wistar, whole blood, iv, 2 mg/kg, IV 2 mg kg-1, Rat 2, read-out: t½ (converted)) was 19.2 h, the MRT ([1]; Wistar, whole blood, iv, 2 mg/kg, IV 2 mg kg-1, Rat 3) was 12.6 h and the clearance ([1]; Wistar, whole blood, iv, 2 mg/kg, IV 2 mg kg-1, Rat 3, read-out: CL) was 9.6 mL/min/kg. The Vd ([1]; Wistar, whole blood, iv, 2 mg/kg, IV 2 mg kg-1, Rat 3, read-out: Vss) was 7.2 L/kg, the half-life ([1]; Wistar, whole blood, iv, 2 mg/kg, IV 2 mg kg-1, Rat 3, read-out: t½ (converted)) was 13 h and the bioavailability ([1]; Wistar, whole blood, oral, read-out: Rat F (bioavailability)) was 80%. The AUC(0-inf) [1, 2] was 35.8 µM·h, the AUC(0-t) [1, 2] was 34.7 µM·h and the Cmax [1, 2] was 2000 nM. For the same molecule, the bioavailability ([1]; Wistar, whole blood, po, Oral 10 mg kg-1, Mean, read-out: F) was 90%, the AUC(0-inf) [1, 3] was 33.1 µM·h and the AUC(0-t) [1, 3] was 31.8 µM·h. It also gave a Cmax [1, 3] of 1710 nM, a bioavailability ([1]; Wistar, whole blood, po, Oral 10 mg kg-1, Rat 1, read-out: F) of 121% and an AUC(0-inf) [1, 4] of 38.4 µM·h. It also gave an AUC(0-t) [1, 4] of 37.2 µM·h, a Cmax [1, 4] of 2210 nM and a bioavailability ([1]; Wistar, whole blood, po, Oral 10 mg kg-1, Rat 2, read-out: F) of 52%. It also gave an AUC(0-inf) [1, 5] of 36 µM·h, an AUC(0-t) [1, 5] of 35.1 µM·h and a Cmax [1, 5] of 1990 nM. The bioavailability ([1]; Wistar, whole blood, po, Oral 10 mg kg-1, Rat 3, read-out: F) was 96%, the Tmax ([1]; Wistar, whole blood, Oral 10 mg kg-1, Rat 1) was 4 h and the CL ([1]; rat and dog) was under 35 % liver blood flow. The pIC50 (Dd2 PI4K Cpd 1) was 8.15, the “clearance of Pf parasites” value (Pf3D7^0087/N9; 4 days of daily treatment, 20 mg kg^−1, oral) was “below detection limit” and the pEC50 (Pf3D7^0087/N9; Plasmodium falciparum, in Mus musculus) was 7.42. The ED99 (Pf3D7^0087/N9; mouse model of Pf malaria) was under 30 mg/kg, the “dose at which maximum kill rate was observed” value (Pf3D7^0087/N9; oral, 4-day test) was 40 mg/kg and the Kkill (Pf3D7^0087/N9; parent, model predicted estimate) was 0.097 h⁻¹.
